Among the test systems are COLO 205; ACHN; K562; UACC-257; MOLT-4; EKVX; SF-295; UACC-62; OVCAR-5; TK-10; HCT-15; KM-20L2; SF-539; RPMI-8226; SK-OV-3; DMS-273; LOX IMVI; CAKI-1; MCF7; MDA-N.
Holding throughout (test): inhibition of tumour cell growth, NCI panel, 48 h

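Results reflect a 48-hour exposure of cells in 96-well plates to compound at five concentrations. GI50: concentration for 50% inhibition of growth.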 Active and inactive are the calls of the source. Rule as the data show it: active = GI50 up to about 1.1 µM and inactive = higher.

As to `CC1=N/C(=C\c2cccc([N+](=O)[O-])c2)C(=O)O1`, the GI50 in the assay on COLO 205, in the assay on ACHN, with K562, with UACC-257, in the assay with MOLT-4 and in the assay on EKVX was > 100 µM (inactive) throughout. The GI50 in the assay on SF-295 was > 100 µM (inactive); with UACC-62 it was > 100 µM (inactive); in the assay with OVCAR-5, > 100 µM (inactive); with TK-10 it was > 100 µM (inactive); in the assay on HCT-15, above 100 µM; with KM-20L2, > 100 µM (inactive). The GI50 in the assay on SF-539 and with RPMI-8226 was > 100 µM (inactive) each time.

Consider `Cc1cc(C)nc(Sc2c([N+](=O)[O-])ncn2C)n1`, for which the GI50 in the assay with COLO 205, with ACHN, in the assay on K562, in the assay on SK-OV-3, in the assay with UACC-257 and with DMS-273 was > 100 µM (inactive) each time. Also, the GI50 is 69.5 µM (inactive) in the assay on MOLT-4; 57.1 µM (inactive) in the assay with LOX IMVI; > 100 µM (inactive) in the assay on EKVX; > 100 µM (inactive) in the assay with SF-295; > 100 µM (inactive) in the assay with UACC-62; > 100 µM (inactive) in the assay on OVCAR-5. For the same compound, the GI50 in the assay on TK-10, with SF-539, with RPMI-8226 and in the assay with CAKI-1 was > 100 µM (inactive) throughout.

For `COc1ccc(CCn2c(=O)c3ccccc3n(C)c2=O)cc1`, the GI50 with COLO 205 was 13.1 µM (inactive); in the assay with ACHN, > 100 µM (inactive); in the assay with K562 it was 4.21 µM (inactive); in the assay on SK-OV-3, 14.6 µM (inactive); in the assay with UACC-257, 61.7 µM (inactive); in the assay with MOLT-4, 33.8 µM (inactive). Besides, the GI50 is 60.4 µM (inactive) in the assay on EKVX; 30.2 µM (inactive) in the assay on SF-295; 24.2 µM (inactive) in the assay on UACC-62; > 100 µM (inactive) with OVCAR-5; 54.8 µM (inactive) in the assay on TK-10; 63.4 µM (inactive) with KM-20L2. Moreover, the GI50 is 41.6 µM (inactive) with SF-539, 39 µM (inactive) with RPMI-8226 and 38.5 µM (inactive) in the assay on CAKI-1.

On to `COC(=O)C(CC(=O)Nc1ccc(C)cc1)C(=O)C(=O)Nc1c(C(C)C)cccc1C(C)C` (stereo not given), for which the GI50 in the assay with COLO 205, in the assay with ACHN, with K562, in the assay with SK-OV-3, with MOLT-4 and in the assay with LOX IMVI was > 100 µM (inactive) in each case. The GI50 is > 100 µM (inactive) in the assay on EKVX; 55.2 µM (inactive) in the assay with UACC-62; > 100 µM (inactive) in the assay with OVCAR-5; > 100 µM (inactive) in the assay on TK-10; 48.6 µM in the assay on HCT-15; > 100 µM (inactive) in the assay on KM-20L2. Moreover, the GI50 in the assay on SF-539, in the assay on RPMI-8226 and in the assay on CAKI-1 was > 100 µM (inactive) throughout.

Regarding `Nc1c(S(=O)(=O)c2ccc(Cl)cc2)c2nc3ccccc3nc2n2ccnc12`, the GI50 in the assay on COLO 205 was > 100 µM (inactive); in the assay with ACHN, 40.3 µM (inactive); in the assay on K562, > 100 µM (inactive); in the assay with SK-OV-3, 38.4 µM (inactive); in the assay with UACC-257, > 100 µM (inactive); with DMS-273, 82 µM (inactive). Further, the GI50 in the assay on MOLT-4 was > 100 µM (inactive); in the assay with EKVX, 93.8 µM (inactive); with SF-295, > 100 µM (inactive); in the assay on OVCAR-5, > 100 µM (inactive); in the assay on TK-10, 24.9 µM (inactive); in the assay on HCT-15 it was above 100 µM. Also, the GI50 was 17.4 µM (inactive) in the assay with SF-539 and > 100 µM (inactive) with RPMI-8226.

Take `C/C(=N\Nc1cc(CN2CCCC2)c(-c2ccc(Cl)cc2)nn1)C(=O)O`: the GI50 in the assay with COLO 205, in the assay on ACHN, with K562, in the assay with SK-OV-3, in the assay on UACC-257 and in the assay with MOLT-4 was > 100 µM (inactive) throughout. Further, the GI50 in the assay on LOX IMVI, with EKVX, in the assay on SF-295, in the assay on UACC-62, with MCF7 and with MDA-N was > 100 µM (inactive) in each case. Moreover, the GI50 in the assay with OVCAR-5 is > 100 µM (inactive); in the assay on TK-10 it was > 100 µM (inactive); with HCT-15, above 100 µM; in the assay with SF-539, > 100 µM (inactive); in the assay with RPMI-8226, > 100 µM (inactive); in the assay with CAKI-1, > 100 µM (inactive).

Regarding `O=c1c2cnccc2cc2c3ccccc3ccn12`, the GI50 with COLO 205 was 63.2 µM (inactive); with ACHN, 19.3 µM (inactive); with K562, 37.9 µM (inactive); in the assay with SK-OV-3 it was > 100 µM (inactive); with UACC-257, > 100 µM (inactive); in the assay on MOLT-4 it was 5.21 µM (inactive). The GI50 in the assay on LOX IMVI is 18.9 µM (inactive); with EKVX, 3.63 µM (inactive); in the assay with SF-295, > 100 µM (inactive); in the assay on UACC-62 it was 4.7 µM (inactive); with MCF7 it was 13.2 µM (inactive); in the assay with MDA-N it was > 100 µM (inactive). Moreover, the GI50 is > 100 µM (inactive) in the assay on OVCAR-5; 24.3 µM (inactive) in the assay on TK-10; 23.1 µM with HCT-15; > 100 µM (inactive) in the assay on SF-539; 19.9 µM (inactive) in the assay on RPMI-8226; 9.89 µM (inactive) in the assay on CAKI-1.

On to `c1ccc(COC[C@H]2C3OCC([C@H](OCc4ccccc4)[C@H]3OCc3ccccc3)N2Cc2ccccc2)cc1` (stereo not given in full), for which the GI50 with COLO 205 was > 57 µM (inactive); with ACHN, > 56.2 µM (inactive); in the assay with K562, 12.4 µM (inactive); in the assay on SK-OV-3, > 56.4 µM (inactive); in the assay with UACC-257, 49 µM (inactive); in the assay on MOLT-4, 6.44 µM (inactive). In addition, the GI50 with LOX IMVI is > 50.6 µM (inactive); in the assay with EKVX, > 46.7 µM (inactive); in the assay on SF-295, > 51.2 µM (inactive); in the assay on UACC-62 it was 29.7 µM (inactive); in the assay with MCF7 it was > 56 µM (inactive); in the assay with MDA-N it was > 53.2 µM (inactive). In addition, the GI50 was > 52.4 µM (inactive) in the assay with OVCAR-5; > 52.6 µM (inactive) in the assay with TK-10; above 45.8 µM with HCT-15; > 59 µM (inactive) with SF-539; 15.8 µM (inactive) with RPMI-8226; > 53.7 µM (inactive) in the assay on CAKI-1.

Consider `CSCC[C@H](NC(=O)[C@H](CC(C)C)NC(=O)[C@@H](Cc1ccccc1)NC(=O)CNC(=O)[C@@H](NC(=O)[C@H](C)NC(=O)[C@H](Cc1c[nH]c2ccccc12)NC(=O)[C@H](CCC(N)=O)NC(=O)[C@H](N)CC(N)=O)C(C)C)C(N)=O`, for which the GI50 in the assay on COLO 205, with ACHN, with K562, with SK-OV-3, with UACC-257 and with MOLT-4 was > 12.5 µM (inactive) in each case. In addition, the GI50 with LOX IMVI, in the assay with EKVX, in the assay with SF-295, in the assay on UACC-62, with MCF7 and in the assay on MDA-N was > 12.5 µM (inactive) throughout. The GI50 with OVCAR-5 was > 12.5 µM (inactive); in the assay on TK-10 it was > 12.5 µM (inactive); in the assay with HCT-15, above 12.5 µM; in the assay with SF-539, > 12.5 µM (inactive); in the assay with RPMI-8226 it was > 12.5 µM (inactive); in the assay on CAKI-1, > 12.5 µM (inactive).

On to `O=c1cc(N2CCCC2)[nH]c(=O)n1-c1ccc(Cl)cc1`, for which the GI50 in the assay on COLO 205, with ACHN, in the assay with K562, in the assay with SK-OV-3, in the assay with UACC-257 and in the assay with MOLT-4 was > 100 µM (inactive) each time. The GI50 in the assay on LOX IMVI, in the assay with EKVX, with SF-295, in the assay on UACC-62, in the assay on MCF7 and in the assay with MDA-N was > 100 µM (inactive) each time. Further, the GI50 with OVCAR-5 was > 100 µM (inactive); in the assay with TK-10 it was > 100 µM (inactive); with HCT-15 it was above 100 µM; with SF-539, > 100 µM (inactive); with RPMI-8226, > 100 µM (inactive); in the assay on CAKI-1 it was > 100 µM (inactive).

`O=C(Oc1cncc(Cl)c1)c1cc2ccccc2sc1=O`: the GI50 in the assay on COLO 205 is 49.9 µM (inactive); in the assay on ACHN, 86.1 µM (inactive); in the assay on K562 it was 31.7 µM (inactive); in the assay with SK-OV-3 it was > 100 µM (inactive); in the assay on UACC-257, > 100 µM (inactive); in the assay with MOLT-4, 23.7 µM (inactive). The GI50 in the assay on LOX IMVI is 37.3 µM (inactive); with EKVX it was > 100 µM (inactive); in the assay on SF-295, 96.2 µM (inactive); in the assay with UACC-62, 29 µM (inactive); with MCF7, 39.4 µM (inactive); with MDA-N, 78.2 µM (inactive). For the same compound, the GI50 was > 100 µM (inactive) in the assay on OVCAR-5; 76.7 µM (inactive) in the assay with TK-10; 38.5 µM in the assay on HCT-15; 18.5 µM (inactive) with SF-539; 21.1 µM (inactive) with RPMI-8226; > 100 µM (inactive) with CAKI-1.

As to `COc1cc2cc(C(=O)N3C[C@H](CCl)c4c3cc(N)c3ccccc43)[nH]c2c(OC)c1OC`, the GI50 in the assay on COLO 205 is 0.0173 µM (active); in the assay with ACHN, < 0.005 µM (active); in the assay with K562, 2.39 µM (inactive); with SK-OV-3, 0.22 µM (active); in the assay on UACC-257, 1.6 µM (inactive); with MOLT-4, 7.82 µM (inactive). Besides, the GI50 in the assay with LOX IMVI was 0.519 µM (active); with EKVX, 0.0103 µM (active); in the assay on SF-295 it was 2.61 µM (inactive); in the assay with UACC-62, 2.44 µM (inactive); in the assay on MCF7, 0.0023 µM (active); in the assay with MDA-N, < 0.01 µM (active). Also, the GI50 in the assay with OVCAR-5 is 0.0906 µM (active); in the assay on TK-10, 0.005 µM (active); with HCT-15, 0.005 µM; with SF-539 it was 0.0284 µM (active); with RPMI-8226 it was 0.0275 µM (active); with CAKI-1, < 0.005 µM (active).

For the origin of these results see ChEMBL document CHEMBL1201862, “PubChem BioAssay data set” (2004).
